Measured values from patent US20150202179A1, “FATTY ACID DERIVATIVES FOR USE IN A METHOD OF TREATING DEPRESSION AND ASSOCIATED CONDITIONS” (YISSUM RESEARCH DEVELOPMENT COMPANY OF THE HEBREW …, priority 2012, published 2015).
“Also recorded” adds a separate entry of the source.

What was measured:
[1] = test system: Norepinephrine (NE) levels; test: Norepinephrine (NE) determination in brain tissue by HPLC with electrochemical detection; format: in vivo, mice; details: for NE: ng/g wet tissue +/− SEM; for norepinephrine levels in the hippocampus vs. control / norepinephrine levels in the hypothalamus vs. control: result in words
Protocol: (§1) Solution of DHBA as internal standard in the concentration of: 1 μg/ml in 0.1M perchloric acid, were prepared. Standard solutions of NE and 5HT in the concentration of 1-0.1 μg/ml in 0.1M perchloric acid were prepared.
(§2) Tissues (hypothalamus and hippocampus) obtained from 6-8 mice were dissected on ice surface and kept at −80 C. Hypothalamus (HT) or hippocampus (HC) from 1 mice were weighted (weight of HT −10-20 mg, HC 30-40 mg) and placed in eppendorf micro-centrifuge tube, 1.5 ml. To each tube was added 120-160 μl of ice cold solution of Perchloric acid and DHBA, homogenized in ice bath on Sonics vibra cell, 3×20 sec., 0.4 watts and centrifuged at 14,000×g at 4° C. 10 min. Supernatant gained was stored in ice before analysis.
(§3) The HPLC system consisted of Jasco PU-980 pump, Jasco AS-950-10 autosampler cooled at 4° C., H3 ODS-125A 3 μm 125 mm×4.6 mm i.d. analytical column (Hichrom, UK) were used. Electrochemical detector Coulochem ESA 5100A with analytical cell model 5011 was used for control detector voltage and record the current. Working electrode was set at potential +350 mV. Control and data collection/processing were handled through Borwin chromatography software.
(§4) The mobile phase composition: A stock buffer was prepared as follows: 20 mM sodium dihydrogenorthophosphate, EDTA 3 mg/l, 1-heptanesulfonic acid 1 g/l were dissolved in 1 liter deionized distilled water and buffered to pH 3.7 using concentrated phosphoric acid. To prepare the mobile phase buffer was mixed with acetonitrile (Baker HPLC analyzed) in the ratio 85:15 (v/v), filtered through a 0.2 μm membrane filter and degassed under vacuum after mixing. Mobile phase flow rate 1 ml/min. Injection volume 20 μl, retention time for DHBA 4.2 min., norepinephrine—3.1 min., 5HT 8.6 min. For calibration curve 1 ug/ml solution of DHBA together with 1.0-0.1 μg/ml solutions of 5HT and NE were used. The ratio between 5HT or NE and DHBA used to calculate the level of 5HT and NE in the sample. Date are given in ng/g wet tissue +/−SEM.

serotonin (5HT) levels = test: Serotonin (5HT) determination in brain tissue by HPLC with electrochemical detection; format: in vivo, mice; details: for 5HT: ng/g wet tissue +/− SEM; for 5HT levels in the hippocampus vs. control / 5HT levels in the hypothalamus vs. control: result in words
Protocol: as §1, §2, §3, §4

[2] = Eight Arm Maze Test, separated BALB/c mice; format: in vivo; details: compounds 1 mg/kg i.p., imipramine 10 mg/kg i.p.; day 34-38; in relation to vehicle (p<0.05)
Protocol: 2 month old female BALB/c mice 10 mice per group were separated (each mouse in a different cage) for 9 days (a model for depression). On days 7, 8, 9, 34-40 days mice were administered with either vehicle or compounds X, 12 and 15 (1 mg/kg i.p.) or imipramine 10 mg/kg (anti-depressant) i.p. and tested in the Eight Arm Maze from day 34-38.

[3] = Novelty Suppressed Feeding Test (NSFT), separated BALB/c mice; format: in vivo; details: compounds 1 mg/kg i.p., day 9
Protocol: (§5) Novelty suppressed feeding test (NSFT): After the last treatment injection, all food is removed from the cage for 24 hours (water available ad libitum). At the end of this time, the animal is introduced into a 50×50×20 (height) cm wooden arena the floor of which is marked with equal rectangles of 10×10 cm. A pellet of food is placed on an elevated surface in the center of the arena. The time elapsing from the introduction of the animal into the arena until it commences eating (latency to feed) is recorded. The animal is removed from the arena immediately after it begins to eat or after not doing so for 5 min. During the test, the number of lines crossed by the animal is counted as a measure of motor activity, and calibrated for 5 min if the animal started eating before that. After the test, the animal is immediately transferred to its home cage and left to consume a previously weighed amount of food for 10 minutes. On completion of this period the food is weighed again to calculate the home cage food consumption.
(§6) 50, 2 month old female BALB/c mice, 10 mice per group, on ad libitum diet were separated (each mouse in a different cage) for 9 days (Separation Stress, a model for depression). On the 7, 8, 9, 34-40, days mice were administered with either vehicle or compounds x, 12 and 15 (1 mg/kg i.p.) or imipramine 10 mg/kg (antidepressant) i.p. and tested in Novel Suppressed Feeding Test on day 9.
as §5, with “FIGS. 9A-9C show the results of the NSFT. […]” for “Novelty suppressed feeding test (NSFT):”, “hours.” for “hours (water available ad libitum).”, “into” for “into a 50×50×20 (height) cm wooden arena”, “open field test.” for “floor of which is marked with equal rectangles of 10×10 cm.”, “to find” for “elapsing from”, “food was” for “introduction of the animal into the arena until it commences eating (latency to feed) is”

[4] = Forced Swim Test (FST), separated BALB/c mice; format: in vivo; details: compounds 1 mg/kg i.p., imipramine 10 mg/kg i.p.; day 8; in relation to vehicle
Protocol: Forced swim test (FST): The animal is placed in a circular, transparent, plexiglass tank measuring 21 cm in diameter and 46 cm in height containing water 15 cm high, maintained at 23-25° C. […] Also measured is the latency period, the time elapsing, for each animal from immersion in the water tank until the first occurrence of immobility. Since climbing activity is minimal in mice, […].
as §6, with “34-40” for “34-40,”, “the forced swim test (FST)” for “Novel Suppressed Feeding Test”, “8.” for “9.”

[5] = Weight and food consumption in Sabra mice; format: in vivo
Protocol: 140 Female Sabra Mice 12 weeks old are divided to […] 10 mice in each group with equal weight. Mice are administered I.P. with either saline or 1 mg/kg Fluoxetine (PROZAC), compound 1, 4, 5, 7, 10, 11, 12, 13, 14, 15, 19, 26 for a 4 weeks period. On day 30 and on, mice were tested by the following behavioral tests. […]

[6] = Weight and food consumption in OB/OB mice which lack the leptin gene; format: in vivo
Description: Thus the compounds of the invention can be used to treat conditions that are mediated by the enhancement of leptin levels. In obesity there is high leptin level however the leptin receptors are not responding. High CNS leptin level has anti-depression effect however, if there is tolerance there is no anti depression effect.

[7] = Neurological score measured by the NSS method; format: in vivo, BALB/c mice; details: 1 mg/kg i.p.
[8] = Tail Suspension Test, separated BALB/c mice (model for depression); format: in vivo; details: compounds 1 mg/kg i.p., imipramine 10 mg/kg i.p.; day 7; in relation to vehicle
Description: Tail suspension test (TST): Animals are suspended upside down by adhesive tape placed 1 cm from the tail tip. The elevation of the animal is 50 cm from the nearest surface. […] Statistical analysis compares the magnitude of immobility (in seconds) between different treatment groups. In this test, antidepressants characteristically cause an increase of the time fraction spent by the animal as active at the expense of the inactivity period.
50, 2 month old female BALB/c mice were separated (each mouse in a different cage) for 9 days period (a model for depression). On days 7, 8, 9, 34-40 mice were administered with either vehicle or compounds X, 12 and 15 (1 mg/kg i.p.) or imipramine 10 mg/kg (anti-depressant) i.p. and tested in the Tail suspension test on day 7 of the experiment (10 mice per group).

Row | Compound | NE ([1]; Hippocampus) | norepinephrine levels in the hippocampus vs. control [1] | 5HT (serotonin (5HT) levels; Hippocampus) | 5HT levels in the hippocampus vs. control (serotonin (5HT) levels) | 5HT (serotonin (5HT) levels; Hypothalamus) | 5HT levels in the hypothalamus vs. control (serotonin (5HT) levels) | other results
1 | CCCCC/C=C\C/C=C\CCCCCCCC(=O)N[C@H](CO)CC(C)C [Compound 4, Linoleoyl-L-Leucinol amide] | 302.5 ± 22.4 ng/g | significantly enhanced; also recorded: increase significantly | 380.4 ± 12.8 ng/g | significantly enhanced; also recorded: increased significantly | – | – | –
2 | CCCCCCCC/C=C\CCCCCCCC(=O)N[C@H](CO)CC(C)C [Compound 5, Oleoyl-L-Leucinol amide] | – | – | 419.8 ± 67.4 ng/g | increased significantly | 767.2 ± 51.9 ng/g | – | –
3 | CCCCCCCC/C=C/CCCCCCCC(=O)N[C@H](CO)C(C)C [Compound 7, Elaidoyl-L-Valinol amide] | – | – | 335.4 ± 45.4 ng/g | increased significantly | 856.5 ± 115.2 ng/g | increased significantly | –
4 | CCCCC/C=C\C/C=C\CCCCCCCC(=O)N[C@H](CO)C(C)C [Compound 10, Linoleoyl-L-Valinol amide] | 407.9 ± 48.9 ng/g | significantly enhanced; also recorded: increase significantly | 299.2 ± 22.8 ng/g | significantly enhanced; also recorded: increased significantly | – | – | –
5 | CCCCCCCC/C=C\CCCCCCCC(=O)N[C@@H](CO)C(C)C [Compound 11, Oleoyl-D-Valinol] | – | – | – | – | 777.8 ± 79.1 ng/g | increased significantly | –
6 | CCCCCCCC/C=C\CCCCCCCCOC(=O)N[C@H](CO)C(C)C [Compound 12, Oleyloxycarbonyl-L-Valinol amide] | 378.9 ± 31.4 ng/g | significantly enhanced; also recorded: increase significantly | 332.1 ± 52.7 ng/g | significantly enhanced; also recorded: increased significantly | 810.5 ± 70.6 ng/g | increased significantly | performance in the Eight Arm Maze [2]: significantly improved performance; food intake in NSFT ([3]; in relation to vehicle and more than imipramine 10 mg/kg): significantly enhanced food intake; motor activity in NSFT ([3]; resembled imipramine 10 mg/kg): enhanced motor activity; swimming activity in forced swim test [4]: significantly enhanced swimming activity; food consumption [5]: significant decrease; weight (weight loss) [5]: significant weight loss; also recorded: significant decrease; food consumption [6]: did not change; weight (weight loss) [6]: do not produce weight loss; also recorded: did not change; neurological score (NSS method) [7]: did not affect neurological score
7 | CCCCCCCC/C=C\CCCCCCCCOC(=O)N[C@@H](CO)C(C)C [Compound 13, Oleyloxycarbonyl-D-Valinol amide] | 396.7 ± 44.7 ng/g | significantly enhanced; also recorded: increase significantly | 300.1 ± 41.5 ng/g | significantly enhanced; also recorded: increased significantly | 831.3 ± 29.1 ng/g | increased significantly | NE ([1]; Hypothalamus): 1002 ± 62.7 ng/g
8 | CCCCCCCC/C=C\CCCCCCCC(=O)N[C@H](CO)Cc1ccccc1 [Compound 26, Oleoyl-L-phenyl alaninol] | – | increase significantly | – | – | – | – | –
9 | CN(C)CCCN1c2ccccc2CCc2ccccc21 [imipramine, reference compound] | – | – | – | – | – | – | performance in the Eight Arm Maze [2]: significantly improved performance; activity in Tail Suspension Test [8]: significantly enhanced activity; swimming activity in forced swim test [4]: significantly enhanced swimming activity
10 | Oleyl-amine-carbonyl-D-valinol [Compound 14] | 313.9 ± 48 ng/g | increase significantly | 344 ± 32.4 ng/g | increased significantly | 876.4 ± 126.8 ng/g | increased significantly | NE ([1]; Hypothalamus): 1139.4 ± 43.3 ng/g; norepinephrine levels in the hippocampus vs. control ([1]; listed as compound 14): significantly enhanced; norepinephrine levels in the hypothalamus vs. control [1]: increased significantly; norepinephrine levels in the hypothalamus vs. control ([1]; listed as compound 14): significantly enhanced; 5HT levels in the hippocampus vs. control (serotonin (5HT) levels; listed as compound 14): significantly enhanced; 5HT levels in the hypothalamus vs. control (serotonin (5HT) levels; listed as compound 14): significantly enhanced
11 | Oleylamino-D-2-hydroxyvaline amide [Compound 19] | 296.4 ± 24.8 ng/g | significantly enhanced; also recorded: increase significantly | 296.3 ± 33.2 ng/g | significantly enhanced; also recorded: increased significantly | – | – | –
